Legend:
Assay type in all cases: in vivo
Solanum nigrum (SOLNI) [1] = assay: Post-emergence biological efficacy, glasshouse pot test; conditions: 312 h
Experimental: (§1) Seeds of Alopecurus myosuroides (ALOMY), Setaria faberi (SETFA), Echinochloa crus-galli (ECHCG), Solanum nigrum (SOLNI), Amaranthus retoflexus (AMARE) and Ipomea hederaceae (IPOHE) were sown in standard soil in pots. After cultivation for 8 days under controlled conditions in a glasshouse (at 24/16° C., day/night; 14 hours light; 65% humidity), the plants were sprayed with an aqueous spray solution derived from the formulation of the technical active ingredient in acetone/water (50:50) solution containing 0.5% Tween 20 (polyoxyethelyene sorbitan monolaurate, CAS RN 9005-64-5) to give a final dose of 1000 or 250 g/ha of test compound.
(§2) The test plants were then grown on under controlled conditions in a glasshouse (at 24/16° C., day/night; 14 hours light; 65% humidity) and watered twice daily. After 13 days the test was evaluated (100=total damage to plant; 0=no damage to plant).

[2] = system: Echinochloa crus-galli (ECHCG); assay: as above; conditions: 312 h
Experimental: as §1, §2

[3] = system: Ipomea hederaceae (IPOHE); assay: as above; conditions: Ipomoea hederacea, 312 h
Experimental: as §1, §2

[4] = system: Amaranthus retoflexus (AMARE); assay: as above; conditions: Amaranthus retroflexus, 312 h
Experimental: as §1, §2

[5] = system: Alopecurus myosuroides (ALOMY); assay: as above; conditions: 312 h
Experimental: as §1, §2

Setaria faberi (SETFA) [6] = assay: as above; conditions: 312 h
Experimental: as §1, §2

Solanum nigrum (SOLNI) [7] = assay: Pre-emergence biological efficacy, glasshouse pot test; conditions: 312 h
Experimental: as §1, with “one day” for “8 days”
(§3) The test plants were then grown under controlled conditions in the glasshouse (at 24/16° C., day/night; 14 hours light; 65% humidity) and watered twice daily. After 13 days the test was evaluated (100=total damage to plant; 0=no damage to plant).

[8] = system: Echinochloa crus-galli (ECHCG); assay: as above; conditions: 312 h
Experimental: as §1, with “one day” for “8 days”
as §3

[9] = system: Ipomea hederaceae (IPOHE); assay: as above; conditions: Ipomoea hederacea, 312 h
Experimental: as §1, with “one day” for “8 days”
as §3

[10] = system: Amaranthus retoflexus (AMARE); assay: as above; conditions: Amaranthus retroflexus, 312 h
Experimental: as §1, with “one day” for “8 days”
as §3

[11] = system: Alopecurus myosuroides (ALOMY); assay: as above; conditions: 312 h
Experimental: as §1, with “one day” for “8 days”
as §3

Setaria faberi (SETFA) [12] = assay: as above; conditions: 312 h
Experimental: as §1, with “one day” for “8 days”
as §3

[13] = post-emergence, 1,000 g/ha, evaluated after 13 days (100=total damage; 0=no damage), read-out: Percentage damage caused to weed species, SOLNI
[14] = post-emergence, 1,000 g/ha, evaluated after 13 days (100=total damage; 0=no damage), read-out: Percentage damage caused to weed species, ECHCG
[15] = post-emergence, 1,000 g/ha, evaluated after 13 days (100=total damage; 0=no damage), read-out: Percentage damage caused to weed species, IPOHE
[16] = post-emergence, 1,000 g/ha, evaluated after 13 days (100=total damage; 0=no damage), read-out: Percentage damage caused to weed species, AMARE
[17] = post-emergence, 1,000 g/ha, evaluated after 13 days (100=total damage; 0=no damage), read-out: Percentage damage caused to weed species, ALOMY
[18] = post-emergence, 1,000 g/ha, evaluated after 13 days (100=total damage; 0=no damage), read-out: Percentage damage caused to weed species, SETFA
[19] = pre-emergence, 1,000 g/ha, evaluated after 13 days (100=total damage; 0=no damage), read-out: Percentage damage SOLNI
[20] = pre-emergence, 1,000 g/ha, evaluated after 13 days (100=total damage; 0=no damage), read-out: Percentage damage ECHCG
[21] = pre-emergence, 1,000 g/ha, evaluated after 13 days (100=total damage; 0=no damage), read-out: Percentage damage IPOHE
[22] = pre-emergence, 1,000 g/ha, evaluated after 13 days (100=total damage; 0=no damage), read-out: Percentage damage AMARE
[23] = pre-emergence, 1,000 g/ha, evaluated after 13 days (100=total damage; 0=no damage), read-out: Percentage damage ALOMY
[24] = pre-emergence, 1,000 g/ha, evaluated after 13 days (100=total damage; 0=no damage), read-out: Percentage damage SETFA

| SMILES | pest or weed control at 1000 g/ha (Solanum nigrum (SOLNI) [1]; [13]) [%] | pest or weed control at 1000 g/ha [2, 14] [%] | pest or weed control at 1000 g/ha [3, 15] [%] | pest or weed control at 1000 g/ha [4, 16] [%] | pest or weed control at 1000 g/ha [5, 17] [%] | pest or weed control at 1000 g/ha (Setaria faberi (SETFA) [6]; [18]) [%] | pest or weed control at 1000 g/ha (Solanum nigrum (SOLNI) [7]; [19]) [%] | pest or weed control at 1000 g/ha [8, 20] [%] | pest or weed control at 1000 g/ha [9, 21] [%] | pest or weed control at 1000 g/ha [10, 22] [%] | pest or weed control at 1000 g/ha [11, 23] [%] | pest or weed control at 1000 g/ha (Setaria faberi (SETFA) [12]; [24]) [%] | also measured |
| --- | --- | --- | --- | --- | --- | --- | --- | --- | --- | --- | --- | --- | --- |
| COC(=O)c1nc(C2CC2)nc(NCc2cccc(-c3ccccc3)c2)c1Cl [Compound 4-95, 5-Chloro-2-cyclopropyl-6-methoxycarbonyl-4-(3-phenylphenyl-methylamino)-pyrimidine] | 80 | 60 | 100 | 90 | 20 | 60 | 30 | 10 | 30 | 60 | 10 | 10 |  |
| COc1c(Cl)ccc(-c2nc(NCC3CC3)c(Cl)c(C(=O)O)n2)c1F [Compound 109-43, 5-Chloro-2-(4-chloro-2-fluoro-3-methoxyphenyl)-4-cyclopropylmethyl-aminopyrimidine-6-carboxylic acid] |  |  |  |  |  |  |  |  |  |  |  |  | pest or weed control at 1000 g/ha (Solanum nigrum (SOLNI) [1]; Rate 1,000 g/ha, post-emergence spray, evaluated after 13 days (100=total damage to plant; 0=no damage to plant), read-out: Percentage damage caused to weed species, post-emergence, SOLNI): 100%; pest or weed control at 1000 g/ha ([2]; Rate 1,000 g/ha, post-emergence spray, evaluated after 13 days (100=total damage to plant; 0=no damage to plant), read-out: Percentage damage caused to weed species, post-emergence, ECHCG): 100%; pest or weed control at 1000 g/ha ([3]; Rate 1,000 g/ha, post-emergence spray, evaluated after 13 days (100=total damage to plant; 0=no damage to plant), read-out: Percentage damage caused to weed species, post-emergence, IPOHE): 80%; pest or weed control at 1000 g/ha ([4]; Rate 1,000 g/ha, post-emergence spray, evaluated after 13 days (100=total damage to plant; 0=no damage to plant), read-out: Percentage damage caused to weed species, post-emergence, AMARE): 100%; pest or weed control at 1000 g/ha ([5]; Rate 1,000 g/ha, post-emergence spray, evaluated after 13 days (100=total damage to plant; 0=no damage to plant), read-out: Percentage damage caused to weed species, post-emergence, ALOMY): 90%; pest or weed control at 1000 g/ha (Setaria faberi (SETFA) [6]; Rate 1,000 g/ha, post-emergence spray, evaluated after 13 days (100=total damage to plant; 0=no damage to plant), read-out: Percentage damage caused to weed species, post-emergence, SETFA): 90%; pest or weed control at 1000 g/ha (Solanum nigrum (SOLNI) [7]; pre-emergence, rate 1,000 g/ha, evaluated after 13 days (100=total damage to plant; 0=no damage), read-out: Percentage damage caused to weed species, SOLNI): 90%; pest or weed control at 1000 g/ha ([8]; pre-emergence, rate 1,000 g/ha, evaluated after 13 days (100=total damage to plant; 0=no damage), read-out: Percentage damage caused to weed species, ECHCG): 30%; pest or weed control at 1000 g/ha ([9]; pre-emergence, rate 1,000 g/ha, evaluated after 13 days (100=total damage to plant; 0=no damage), read-out: Percentage damage caused to weed species, IPOHE): 70%; pest or weed control at 1000 g/ha ([10]; pre-emergence, rate 1,000 g/ha, evaluated after 13 days (100=total damage to plant; 0=no damage), read-out: Percentage damage caused to weed species, AMARE): 100%; pest or weed control at 1000 g/ha ([11]; pre-emergence, rate 1,000 g/ha, evaluated after 13 days (100=total damage to plant; 0=no damage), read-out: Percentage damage caused to weed species, ALOMY): 10%; pest or weed control at 1000 g/ha (Setaria faberi (SETFA) [12]; pre-emergence, rate 1,000 g/ha, evaluated after 13 days (100=total damage to plant; 0=no damage), read-out: Percentage damage caused to weed species, SETFA): 60% |
| COC(=O)c1nc(C2CC2)nc(NCCCc2cccnc2)c1Cl [Compound 4-251, 5-Chloro-2-cyclopropyl-6-methoxycarbonyl-4-[3-(pyrid-3-yl)propylamino]-pyrimidine] | 80 | 40 | 50 | 100 | 10 | 50 | 20 | 0 | 20 | 40 | 0 | 0 |  |
| COC(=O)c1nc(C2CC2)nc(N[C@@H](CC2CCCCC2)C(=O)OC)c1Cl [4-282 (S), 5-Chloro-4-[(1S)-2-cyclohexyl-1-methoxycarbonyl-ethylamino]-2-cyclopropyl-6-methoxycarbonyl-pyrimidine] | 80 | 20 | 80 | 100 | 20 | 60 | 90 | 30 | 80 | 90 | 10 | 20 |  |
